Data as given in patent publication US5567676A, “Glycopeptide antibiotics” (Gruppo Lepetit S.p.A, priority 1986, dated 1996).

Experiments:
[1] = system: different microorganism cultures; experiment: In vitro antibacterial activity, standard dilution tests (microorganisms of Table I); assay type: cell-based
[2] = system: Staph. aureus L165; experiment: MIC, broth dilution test; assay type: cell-based; details: Isosensitest broth, 24 h
[3] = system: Staph. haemolyticus L602 (clinical isolate); experiment: MIC, broth dilution test; assay type: cell-based; details: Isosensitest broth, 24 h, 37° C.
[4] = system: Strep. pyogenes L49 C203; experiment: MIC, broth dilution test; assay type: cell-based; details: Todd-Hewitt broth, 24 h, 37° C.
[5] = system: Strep. pneumoniae L44 UC41; experiment: MIC, broth dilution test; assay type: cell-based; details: Todd-Hewitt broth, 24 h, 37° C.
[6] = system: Strep. faecalis L149 ATCC 7080; experiment: MIC, broth dilution test; assay type: cell-based; details: Isosensitest broth, 24 h, 37° C.
[7] = system: Strep. mitis L796 (clinical isolate); experiment: MIC, broth dilution test; assay type: cell-based; details: Todd-Hewitt broth, 24 h, 37° C.
[8] = system: Neisseria gonorrhoeae L997 ISM68/126; experiment: MIC, broth dilution test; assay type: cell-based; details: GC base broth +1% Isovitalex, 48 h, CO2-enriched atmosphere, 37° C.
[9] = system: Haemophilus influenzae L 970 type b ATCC 19418; experiment: MIC, broth dilution test; assay type: cell-based; details: Brain Heart broth +1% Supplement C, 48 h, 37° C.
[10] = system: Proteus vulgaris L79 X19H ATCC881; experiment: MIC, broth dilution test; assay type: cell-based; details: Isosensitest broth, 24 h, 37° C.
[11] = system: Pseudomonas aeruginosa L4 ATCC10145; experiment: MIC, broth dilution test; assay type: cell-based; details: Isosensitest broth, 24 h, 37° C.
[12] = system: Ureaplasma urealyticum L1479 (clinical isolate); experiment: MIC, broth dilution test; assay type: cell-based; details: PPLO broth with supplements, 24 h, about 10^4 color-changing units/ml, 37° C.
[13] = system: Klebsiella pneumoniae L142; experiment: MIC, broth dilution test; assay type: cell-based; details: Isosensitest broth, 24 h, 37° C.
[14] = system: S. pyogenes C 203 (L 49); experiment: Experimental septicemia in the mice; assay type: in vivo, CD-1 mice; details: mice infected i.p. with S. pyogenes C 203 (L 49); compound s.c. immediately after infection; survival on the 7th day, Spearman and Karber
Procedure: The antimicrobial activity of the compounds of the invention is confirmed also in experimental septicemia in the mice. Control and treatment groups may include ten CD-1 mice (Charles River) weighing 18-22 g. They are infected intraperitoneally with 0.5 ml of bacterial suspension prepared by diluting an overnight culture of S. pyogenes C 203 (L 49) with sterile peptonized saline. Inocula are adjusted so that untreated animals die of septicemia within 48 h. The compounds to be tested are administered subcutaneously immediately after infection. On the 7th day, the ED50 in mg/kg is calculated by the method of Spearman and Karber (D. J. Finney "Statistical Methods in Biological Assay" Griffin, page 524, 1952) from the percentage of surviving animals at each dose.

[15] = system: Staph. epidermidis L147 ATCC 12228 (coagulase negative); details: Isosensitest broth, 24 h, 37° C.
[16] = system: Clostridium perfringens L290 ISS 30543; details: AC broth, 24 h, anaerobic atmosphere, 37° C.

Substance | level of antimicrobial activity compared with de-acyl antibiotic A 40926 (Table I) [1] | M.I.C. ([2]; Staph. aureus (10^6 cfu/ml)) | M.I.C. ([2]; Staph. aureus (30% bovine serum)) | M.I.C. ([2]; Staph. aureus L165, 37° C., about 10^4-10^5 cfu/ml) | M.I.C. [3] | M.I.C. [4] | M.I.C. [5] | M.I.C. [6] | M.I.C. [7] | M.I.C. [8] | M.I.C. [9] | M.I.C. [10] | M.I.C. [11] | M.I.C. [12] | M.I.C. [13] | ED50 [14] | M.I.C. [15] | M.I.C. [16]
antibiotic A 40926 aminoglucuronyl aglycon | substantially the same level of antimicrobial activity as that reported above for de-acyl antibiotic A 40926 | – | – | – | – | – | – | – | – | – | – | – | – | – | – | – | – | –
de-acyl antibiotic A 40926 | – | 2 µg/mL | 2 µg/mL | 1 µg/mL | 32 µg/mL | 0.25 µg/mL | 0.25 µg/mL | 2 µg/mL | 0.5 µg/mL | 64 µg/mL | 128 µg/mL | > 128 µg/mL | > 128 µg/mL | > 128 µg/mL | > 128 µg/mL | 2.33 mg/kg | 2 µg/mL | 0.13 µg/mL
de-acyl antibiotic A 40926 P | substantially the same level of antimicrobial activity as that reported above for de-acyl antibiotic A 40926 | – | – | – | – | – | – | – | – | – | – | – | – | – | – | – | – | –
